Where two headings read alike, the source gives them in different places.
Key:
[1] = system: SNU-638; assay: Cell viability / antiproliferative assay (WST-8), SNU-638; type: cell-based, human; settings: read-out: SNU-638 IC50
Method: (§2) c-MET overexpressing human gastric cancer cell lines [MKN45] and [SNU638] were cultured in RPMI medium with 10% fetal bovine serum, penicillin (100U/ml), and streptomycin (100mg/ml), and c-MET exon 14 skipping mutant human gastric cancer cell lines [Hs746T] were cultured in DMEM media. The c-MET overexpressing human lung cancer cell line EBC-1 was cultured in MEM media with the addition of 10% fetal bovine serum, penicillin (100U/ml), and streptomycin (100mg/ml). […] The compound synthesized in accordance with the present invention was prepared with a raw material solution of 10 mM dissolved in DMSO (dimethyl sulfoxide), and was sequentially diluted and processed.
(§3) In order to observe the inhibitory activity on cell growth, cells were dispensed in a 96-well plate at a concentration of 5,000 cells/well, and then treated with the compound prepared at various concentrations for 72 hours. The viability of the cells was calculated using GraphicPad Prism 8.0 software by adding 10 ml per well of WST-8 (water soluble tetrazolium salt) sample, which reacts with dehydrogenase present in the electron transport system of mitochondria to produce formazon, incubated for 2 hours, and measured absorbance at 450 nm.

[2] = biological target: T1, c-MET (Homo sapiens, UniProt P08581); assay: c-MET protein degradation (Simple Western), SNU-638; type: cell-based; design: assess the resolution of the compound of the present invention for c-MET expressed in cells; endogenous in cells; host or cells: SNU638 (human gastric cancer); settings: c-MET overexpressing gastric cancer cell line SNU-638, treated 24 hours
T1 sequence (P08581 25-1390): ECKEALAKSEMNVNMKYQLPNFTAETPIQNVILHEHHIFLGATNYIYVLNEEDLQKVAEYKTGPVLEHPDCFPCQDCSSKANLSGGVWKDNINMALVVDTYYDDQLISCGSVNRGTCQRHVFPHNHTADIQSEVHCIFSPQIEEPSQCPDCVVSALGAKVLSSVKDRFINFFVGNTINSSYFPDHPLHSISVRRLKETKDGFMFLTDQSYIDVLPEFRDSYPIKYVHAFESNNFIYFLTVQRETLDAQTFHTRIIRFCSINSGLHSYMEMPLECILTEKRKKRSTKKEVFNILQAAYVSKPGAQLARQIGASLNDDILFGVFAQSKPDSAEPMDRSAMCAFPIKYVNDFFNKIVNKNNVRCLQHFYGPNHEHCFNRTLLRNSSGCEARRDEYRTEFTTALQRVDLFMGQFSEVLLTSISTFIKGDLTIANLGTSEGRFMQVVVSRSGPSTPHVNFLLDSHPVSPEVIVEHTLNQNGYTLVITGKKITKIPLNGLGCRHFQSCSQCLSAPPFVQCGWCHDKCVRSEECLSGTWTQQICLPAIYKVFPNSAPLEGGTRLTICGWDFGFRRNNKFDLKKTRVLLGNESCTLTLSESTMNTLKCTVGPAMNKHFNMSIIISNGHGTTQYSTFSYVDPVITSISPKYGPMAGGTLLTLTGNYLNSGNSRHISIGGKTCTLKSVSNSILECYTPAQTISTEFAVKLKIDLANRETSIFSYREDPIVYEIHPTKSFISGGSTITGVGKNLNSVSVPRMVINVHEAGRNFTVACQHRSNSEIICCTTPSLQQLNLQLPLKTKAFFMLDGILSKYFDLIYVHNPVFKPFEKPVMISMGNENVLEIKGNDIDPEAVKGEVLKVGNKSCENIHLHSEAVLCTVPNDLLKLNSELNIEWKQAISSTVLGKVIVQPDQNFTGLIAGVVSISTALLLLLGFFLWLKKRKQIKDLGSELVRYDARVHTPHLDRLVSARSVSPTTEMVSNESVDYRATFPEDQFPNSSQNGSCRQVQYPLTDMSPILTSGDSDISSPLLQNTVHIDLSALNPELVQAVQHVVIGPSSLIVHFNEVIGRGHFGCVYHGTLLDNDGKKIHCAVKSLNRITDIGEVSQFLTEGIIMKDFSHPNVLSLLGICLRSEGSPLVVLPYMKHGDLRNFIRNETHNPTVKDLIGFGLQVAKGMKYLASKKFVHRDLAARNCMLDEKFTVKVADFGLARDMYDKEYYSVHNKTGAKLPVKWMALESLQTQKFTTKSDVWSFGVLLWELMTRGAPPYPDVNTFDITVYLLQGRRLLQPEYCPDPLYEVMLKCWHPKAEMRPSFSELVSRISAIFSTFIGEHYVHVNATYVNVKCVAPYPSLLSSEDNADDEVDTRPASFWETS
Method: (§1) In order to assess the resolution of the compound of the present invention for c-MET expressed in cells, cells were dispensed in a 12-well plate at a concentration of 2 × 10^5 cells/well, and then gastric cancer cell lines were treated with samples for 24 hours and lung cancer cell lines were treated for 48 hours. Cell lysates were collected using a scraper on ice, centrifuged at 4°C15,000 rpm for 30 min to obtain a protein-containing supernatant. Protein expression was then measured using the Simple Western Automated Western Blot System Abby instrument using 3 µg of protein for each sample. SDS and heat-induced denaturation proteins were separated by molecular weight, attached to capillary, reacted with anti-c-MET or anti-GAPDH antibodies, which are primary antibodies, and then reacted with HRP-conjugated secondary antibodies, and analyzed the protein expression signal with compass software. Protein expression was normalized based on the expression value of GAPDH, and protein development in each sample was measured as a percentage (%) based on 100% of samples treated with 0.1% DMSO carriers, and DC50 (concentration of a compound where 50% protein inhibition is achieved) was calculated from the change in protein expression amount due to compound treatment.

[3] = system: EBC-1; assay: Cell viability / antiproliferative assay (WST-8), EBC-1; type: cell-based, human; settings: read-out: EBC-1 IC50
Method: as §2, §3

[4] = biological target: T1, c-MET; assay: c-MET protein degradation (Simple Western), EBC-1; type: cell-based; design: assess the resolution of the compound of the present invention for c-MET expressed in cells; endogenous in cells; host or cells: EBC-1 (human lung cancer); settings: c-MET overexpressing lung cancer cell line EBC-1, treated 48 hours; Table 2
Method: as §1

[5] = system: MKN-45; assay: Cell viability / antiproliferative assay (WST-8), MKN-45; settings: Homo sapiens, MKN-45, 72 h, read-out: MKN-45 IC50;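 also: MKN-45 is a human gastric cancer line overexpressing c-MET, growth inhibition read as WST-8 formazan absorbance at 450 nm after 2 h dye incubation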
Method: as §2, §3

[6] = biological target: T1, c-MET; assay: c-MET protein degradation (Simple Western), MKN-45; type: cell-based; design: assess the resolution of the compound of the present invention for c-MET expressed in cells; endogenous in cells; host or cells: MKN45 (human gastric cancer); settings: c-MET overexpressing gastric cancer cell line MKN-45, treated 24 hours; Table 2
In short: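 Cells treated 24 h (gastric lines) or 48 h (lung lines); 3 µg lysate protein analysed by capillary Simple Western with anti-c-MET, normalized to GAPDH and expressed as % of 0.1% DMSO; DC50 from expression change.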

[7] = Homo sapiens, SNU-638 cells, 72 hours, WST-8, Table 2
[8] = Homo sapiens, EBC-1 cells, 72 hours, WST-8, Table 2

`N#Cc1cccc(-c2ccc(=O)n(Cc3cccc(-c4ncc(-c5cccc(CN6CCN(c7ccc(C8CCC(=O)NC8=O)cn7)CC6)c5)cn4)c3)n2)c1` (centres unmarked) [ICT-0001449] showed an IC50 ([1]; Homo sapiens, SNU-638, 72 h) of under 100 nM, a DC50 ([2]; Table 2) of over 1000 nM and an IC50 ([3]; Homo sapiens, EBC-1, 72 h) of under 100 nM. The DC50 [4] was under 100 nM.
`N#Cc1cccc(-c2ccc(=O)n(Cc3cccc(-c4ncc(OCC5CCN(C(=O)CN6CCN(c7ccc(NC8CCC(=O)NC8=O)cc7F)CC6)CC5)cn4)c3)n2)c1` (centres unmarked) [ICT-0001494] showed an IC50 ([1]; Homo sapiens, SNU-638, 72 h) of under 100 nM, a DC50 ([2]; Table 2) of under 100 nM and an IC50 ([3]; Homo sapiens, EBC-1, 72 h) of under 100 nM. The DC50 [4] was under 100 nM.
Work on `Cc1nn(C2CCC(=O)NC2=O)c(=O)c2cc(N3CCN(CCN4CCC(COc5cnc(-c6cccc(Cn7nc(-c8cccc(C#N)c8)ccc7=O)c6)nc5)CC4)CC3)ccc12` (centres unmarked) [ICT-0001278, 3-(1-{[3-(5-{[1-(2-{4-[3-(2,6-dioxopiperidin-3-yl)-1-methyl-4-oxo-3,4-dihydropthalazine-6-yl]piperazine-1-yl}ethyl)piperidine-4-day]methoxy}pyrimidine-2-yl)phenyl]methyl}6-oxo-1,6-dihydropyridazine-3-yl)benzonitrile] yielded an IC50 [5] of under 100 nM and a DC50 [4] of over 1000 nM.
Work on `N#Cc1cccc(-c2ccc(=O)n(Cc3cccc(-c4ncc(OCC5CCN(CC(=O)N6CCC(CN7CCN(c8ccc(NC9CCC(=O)NC9=O)cc8F)CC7)CC6)CC5)cn4)c3)n2)c1` (centres unmarked) [ICT-0001447, 3-(1-{[3-(5-{[1-(2-{4-[(4-{4-[(2,6-dioxopiperidin-3-yl)amino]-2-fluorophenyl}piperazine-1-yl)methyl]piperidine-1-yl}-2-oxoethyl)piperidine-4-yl]methoxy}pyrimidine-2-yl)phenyl]methyl}-6-oxo-1,6-dihydropyridazine-3-yl)benzonitrile] yielded an IC50 [1, 7] of under 100 nM, a DC50 ([2]; Table 2) of 100 to 1000 nM and an IC50 [3, 8] of under 100 nM. The DC50 [4] was under 100 nM.
With `N#Cc1cccc(-c2ccc(=O)n(Cc3cccc(-c4ncc(OCC5CCN(c6ccc(NC7CCC(=O)NC7=O)cc6F)CC5)cn4)c3)n2)c1` (centres unmarked) [ICT-0001383] the IC50 ([1]; Homo sapiens, SNU-638, 72 h) was under 100 nM, the DC50 ([2]; Table 2) was under 100 nM and the IC50 ([3]; Homo sapiens, EBC-1, 72 h) was under 100 nM. For the same compound, the DC50 [4] was under 100 nM.
In the case of `Cn1cc(-c2cnc3c(nnn3C[C@@H]3CN(c4ncc(-c5ccc(CN6CCN(CC(=O)N7CCN(c8ccc(NC9CCC(=O)NC9=O)cc8F)CC7)CC6)cc5)cn4)CCO3)n2)cn1` (some centres unmarked) [ICT-0001379], the IC50 ([1]; SNU-638 cells, 72 hours, WST-8, Table 1) is reported as under 100 nM, the DC50 ([2]; Table 1) is reported as under 100 nM and the IC50 ([3]; EBC-1 cells, 72 hours, WST-8, Table 1) is reported as under 100 nM.
`N#Cc1cccc(-c2ccc(=O)n(Cc3cccc(-c4ncc(-c5cccc(CN6CCN(c7ccc(NC8CCC(=O)NC8=O)cc7F)CC6)c5)cn4)c3)n2)c1` (centres unmarked) [ICT-0001434] gave an IC50 ([1]; Homo sapiens, SNU-638, 72 h) of under 100 nM, a DC50 ([2]; Table 2) of over 1000 nM and an IC50 ([3]; Homo sapiens, EBC-1, 72 h) of under 100 nM. For the same compound, the DC50 [4] was under 100 nM.
`Cc1nn(C2CCC(=O)NC2=O)c(=O)c2c(NCC(=O)N3CCC(CN4CCC(COc5cnc(-c6cccc(Cn7nc(-c8cccc(C#N)c8)ccc7=O)c6)nc5)CC4)CC3)cccc12` (centres unmarked) [ICT-0000980] gave a DC50 [6] of under 100 nM, an IC50 ([1]; Homo sapiens, SNU-638, 72 h) of 100 to 1000 nM and a DC50 ([2]; Table 2) of over 1000 nM. It also gave an IC50 [5] of under 100 nM.
For `N#Cc1cccc(-c2ccc(=O)n(Cc3cccc(-c4ncc(-c5cccc(CN6CCC(CN7CCN(c8ccc(NC9CCC(=O)NC9=O)cc8F)CC7)CC6)c5)cn4)c3)n2)c1` (centres unmarked) [ICT-0001450], the IC50 ([1]; Homo sapiens, SNU-638, 72 h) was under 100 nM, the IC50 ([3]; Homo sapiens, EBC-1, 72 h) was under 100 nM and the DC50 [4] was under 100 nM.
`N#Cc1cccc(-c2ccc(=O)n(Cc3cccc(-c4ncc(OCC5CCN(CCN6CCN(c7ccc(NC8CCC(=O)NC8=O)cc7F)CC6)CC5)cn4)c3)n2)c1` (centres unmarked) [ICT-0001433, 3-(1-(3-(5-((1-(1-(2-(4-((2,6-dioxopiperidine-3-yl)amino)-2-fluorophenyl)piperazine-1-il)ethyl)piperidine-4-il)methoxy)pyrimidine-2-yl)benzyl)6-oxo-1,6-dihydropyridazine-3-yl)benzonitrile] showed an IC50 ([1]; Homo sapiens, SNU-638, 72 h) of under 100 nM, a DC50 ([2]; Table 2) of under 100 nM and an IC50 ([3]; Homo sapiens, EBC-1, 72 h) of under 100 nM. For the same compound, the DC50 [4] was under 100 nM.
`N#Cc1cccc(-c2ccc(=O)n(Cc3cccc(-c4ncc(OCC5CCN(CC(=O)N6CC(N7CCN(c8ccc9c(=O)n(C%10CCC(=O)NC%10=O)ncc9c8)CC7)C6)CC5)cn4)c3)n2)c1` (centres unmarked) [ICT-0001232] was tested, and the DC50 [6] was under 100 nM, the DC50 ([2]; Table 2) was under 100 nM and the IC50 ([3]; Homo sapiens, EBC-1, 72 h) was under 100 nM. The IC50 [5] was under 100 nM and the DC50 [4] was under 100 nM.
`N#Cc1cccc(-c2ccc(=O)n(Cc3cccc(-c4ncc(OCC5CCN(CCN6CCN(c7ccc8c(=O)n(C9CCC(=O)NC9=O)ncc8c7)CC6)CC5)cn4)c3)n2)c1` (centres unmarked) [ICT-0001276, 3-(1-{[3-(5-{[1-(2-{4-[2-(2,6-dioxopiperidin-3-yl)-1-oxo-1,2-dihydropetalazine-6-yl]piperazine-1-il}ethyl)piperidine-4-il]methoxy}pyrimidine-2-yl)phenyl]methyl}-6-oxo-1,6-dihydropyridazine-3-yl)benzonitrile] was tested, and the DC50 [6] was under 100 nM, the IC50 ([1]; Homo sapiens, SNU-638, 72 h) was under 100 nM and the IC50 [5] was under 100 nM. It also gave a DC50 [4] of over 1000 nM.
Compound `N#Cc1cccc(-c2ccc(=O)n(Cc3cccc(-c4ncc(OCC5CCN(CC6CN(c7ccc(NC8CCC(=O)NC8=O)cc7F)C6)CC5)cn4)c3)n2)c1` (centres unmarked) [ICT-0001425] has an IC50 ([1]; SNU-638 cells, 72 hours, WST-8, Table 2) of under 100 nM, a DC50 ([2]; Table 2) of under 100 nM and an IC50 ([3]; EBC-1 cells, 72 hours, WST-8, Table 2) of under 100 nM. The DC50 [4] was under 100 nM.
With `Cc1nn(C2CCC(=O)NC2=O)c(=O)c2ccc(N3CCN(C(=O)C4CCN(CC(=O)N5CCC(COc6cnc(-c7cccc(Cn8nc(-c9cccc(C#N)c9)ccc8=O)c7)nc6)CC5)CC4)CC3)cc12` (centres unmarked) [ICT-0001218] the DC50 [6] was under 100 nM, the IC50 ([1]; Homo sapiens, SNU-638, 72 h) was under 100 nM and the DC50 ([2]; Table 2) was under 100 nM. The IC50 [5] was under 100 nM.
In the case of `N#Cc1cccc(-c2ccc(=O)n(Cc3cccc(-c4ncc(OCC5CCN(CC(=O)N6CCN(CC7CCN(c8ccc(NC9CCC(=O)NC9=O)cc8F)CC7)CC6)CC5)cn4)c3)n2)c1` (centres unmarked) [ICT-0001468, 3-(1-{[3-(5-{[1-(2-{4-[(1-{4-[(2,6-dioxopiperidin-3-yl)amino]-2-fluorophenyl}piperidine-4-yl)methyl]piperazine-1-yl}-2-oxoethyl)piperidine-4-yl]methoxy}pyrimidine-2-yl)phenyl]methyl}-6-oxo-1,6-dihydropyridazine-3-yl)benzonitrile], the IC50 [1, 7] is reported as under 100 nM, the DC50 ([2]; Table 2) is reported as 100 to 1000 nM and the IC50 [3, 8] is reported as under 100 nM. For the same compound, the DC50 [4] was under 100 nM.
With `Cc1nn(C2CCC(=O)NC2=O)c(=O)c2ccc(N3CCN(C(=O)C4CN(CC(=O)N5CCC(COc6cnc(-c7cccc(Cn8nc(-c9cccc(C#N)c9)ccc8=O)c7)nc6)CC5)C4)CC3)cc12` (centres unmarked) [ICT-0001257] the DC50 [6] was under 100 nM, the IC50 ([3]; Homo sapiens, EBC-1, 72 h) was under 100 nM and the IC50 [5] was under 100 nM.
Compound `Cn1cc(-c2cnc3c(nnn3C[C@@H]3CN(c4ncc(-c5ccc(CN6CCN(c7ccc(NC8CCC(=O)NC8=O)cc7F)CC6)cc5)cn4)CCO3)n2)cn1` (stereo partly drawn) [ICT-0001403, 3-((3-fluoro-4-(4-(4-(2-((S)-2-((5-(1-methyl-1H-pyrazole-4-yl)-1H-[1,2,3]triazolo[4,5-b]pyrazine-1-yl)methyl)morpholino)pyrimidine-5-yl)benzyl)piperazine-1-yl)phenyl)amino)piperidine-2,6-dione] has an IC50 ([1]; Homo sapiens, SNU-638 cells, 72 hours, WST-8, Table 1) of under 100 nM and an IC50 ([3]; Homo sapiens, EBC-1 cells, 72 hours, WST-8, Table 1) of under 100 nM.
`Cc1nn(C2CCC(=O)NC2=O)c(=O)c2cc(N3CCN(c4ccc(NCC(=O)N5CCC(COc6cnc(-c7cccc(Cn8nc(-c9cccc(C#N)c9)ccc8=O)c7)nc6)CC5)cc4)CC3)ccc12` (centres unmarked) [ICT-0001262, 3-(1-(3-(5-((1-((4-(4-(3-(2,6-dioxopiperidin-3-yl)-1-methyl-4-oxo-3,4-dihydropthalazine-6-yl)piperazine-1-yl)phenyl)glycy)piperidine-4-il)methoxy)pyrimidine-2-yl)benzyl)6-oxo-1,6-dihydropyridazine-3-yl)benzonitrile] showed a DC50 [6] of under 100 nM, an IC50 ([3]; Homo sapiens, EBC-1, 72 h) of under 100 nM and an IC50 [5] of under 100 nM.

Reference: EP4624466A1, “DEGRADER FOR DECOMPOSING CMET PROTEIN, AND PHARMACEUTICAL COMPOSITION COMPRISING SAME” (Innocure Therapeutics, Inc., priority 2022, dated 2024)
